Results reported in patent US6737383B1, “Herbicidal oxadiazolidines” (priority 1999, dated 2004).

Columns and labels:
[1] = test system: sugar beet; test: Test B pre/postemergence sugar beet; type: in vivo, Beta vulgaris
Outline: (§1)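 Response is a visual 0-to-10 score relative to untreated plants, where 0 means no effect and 10 means complete control, taken twelve to sixteen days after application. Treatments went onto soil at planting and onto foliage of 1- to 4-leaf plants, using a surfactant-containing non-phytotoxic solvent.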

[2] = test system: blackgrass; test: Test B pre/postemergence blackgrass; type: in vivo, Alopecurus myosuroides
Outline: as §1

[3] = test system: pigweed; test: Test B pre/postemergence pigweed; type: in vivo, Amaranthus retroflexus
Outline: as §1

[4] = test system: purple nutsedge; test: Test B pre/postemergence purple nutsedge; type: in vivo, Cyperus rotundus
Outline: as §1

[5] = test system: soybean; test: Test B pre/postemergence soybean; type: in vivo, Glycine max
Outline: as §1

[6] = test system: giant foxtail; test: Test B pre/postemergence giant foxtail; type: in vivo, Setaria faberii
Outline: as §1

[7] = test system: wild oat; test: Test B pre/postemergence wild oat; type: in vivo, Avena fatua
Outline: as §1

[8] = test system: bedstraw; test: Test B pre/postemergence bedstraw; type: in vivo, Galium aparine
Outline: as §1

[9] = test system: corn; test: Test B pre/postemergence corn; type: in vivo, Zea mays
Outline: as §1

[10] = test system: velvetleaf; test: Test B pre/postemergence velvetleaf; type: in vivo, Abutilon theophrasti
Outline: as §1

[11] = test system: surinam grass; test: Test B pre/postemergence surinam grass; type: in vivo, Brachiaria decumbens
Outline: as §1

[12] = test system: wheat; test: Test B pre/postemergence wheat; type: in vivo, Triticum aestivum
Outline: as §1

[13] = test system: morningglory; test: Test B pre/postemergence morningglory; type: in vivo, Ipomoea hederacea
Outline: as §1

[14] = test system: rape; test: Test B pre/postemergence rape; type: in vivo, Brassica napus
Outline: as §1

[15] = test system: cocklebur; test: Test B pre/postemergence cocklebur; type: in vivo, Xanthium strumarium
Outline: as §1

[16] = test system: crabgrass; test: Test B pre/postemergence crabgrass; type: in vivo, Digitaria sanguinalis
Outline: as §1

[17] = Postemergence, Rate 62 g/ha, scale of 0 to 10, 0 is no effect, 10 is complete control
[18] = Postemergence, Rate 125 g/ha, scale 0 to 10, 0 is no effect, 10 is complete control
[19] = Postemergence, Rate 500 g/ha, scale 0 to 10, 0 is no effect, 10 is complete control
[20] = Preemergence, Rate 62 g/ha, scale of 0 to 10 where 0 is no effect and 10 is complete control
[21] = Preemergence, Rate 125 g/ha, scale 0 to 10, 0 is no effect, 10 is complete control
[22] = Preemergence, Rate 500 g/ha, scale of 0 to 10 where 0 is no effect and 10 is complete control
[23] = Rate 250 g/ha, Postemergence, scale of 0 to 10 where 0 is no effect and 10 is complete control

## CC(C)N(C(=O)n1oc(=O)n(CCCC(F)(F)F)c1=O)c1ccc(F)cc1F [Compound 526]
[1]; [17]
  Sugarbeets plant response rating: 0
[1]; [18]
  Sugarbeets plant response rating: 0
[1]; [19]
  Plant response rating, Sugarbeets: 0
[1]; [20]
  Plant response rating, Sugarbeets: 4
[1]; [21]
  Sugarbeets plant response rating: 6
[1]; Preemergence, Rate 250 g/ha
  Sugarbeets plant response rating (0 to 10 scale): 8
[1]; [22]
  Sugarbeets plant response rating: 8
[1]; [23]
  Plant response rating, Sugarbeets: 0
[2]; [17]
  Blackgrass plant response rating: 3
[2]; [18]
  Blackgrass plant response rating: 6
[2]; [19]
  Plant response rating, Blackgrass: 7
[2]; [20]
  Plant response rating, Blackgrass: 7
[2]; [21]
  Blackgrass plant response rating: 9
[2]; Preemergence, Rate 250 g/ha
  Blackgrass plant response rating (0 to 10 scale): 10
[2]; [23]
  Plant response rating, Blackgrass: 9
[3]; [17]
  Redroot pigweed plant response rating: 0
[3]; [18]
  Redroot pigweed plant response rating: 0
[3]; [19]
  Plant response rating, Redroot pigweed: 4
[3]; [20]
  Plant response rating, Redroot pigweed: 4
[3]; [21]
  Redroot pigweed plant response rating: 4
[3]; Preemergence, Rate 250 g/ha
  Redroot pigweed plant response rating (0 to 10 scale): 4
[3]; [23]
  Plant response rating, Redroot pigweed: 2
[4]; [17]
  Nutsedge plant response rating: 0
[4]; [18]
  Nutsedge plant response rating: 0
[4]; [19]
  Plant response rating, Nutsedge: 2
[4]; [20]
  Plant response rating, Nutsedge: 0
[4]; [21]
  Nutsedge plant response rating: 0
[4]; Preemergence, Rate 250 g/ha
  Nutsedge plant response rating (0 to 10 scale): 0
[4]; [22]
  Nutsedge plant response rating: 0
[4]; [23]
  Plant response rating, Nutsedge: 0
[5]; [17]
  Soybean plant response rating: 2
[5]; [18]
  Soybean plant response rating: 3
[5]; [19]
  Plant response rating, Soybean: 3
[5]; [20]
  Plant response rating, Soybean: 0
[5]; [21]
  Soybean plant response rating: 0
[5]; Preemergence, Rate 250 g/ha
  Soybean plant response rating (0 to 10 scale): 0
[5]; [22]
  Soybean plant response rating: 0
[5]; [23]
  Plant response rating, Soybean: 3
[6]; [17]
  Giant foxtail plant response rating: 3
[6]; [18]
  Giant foxtail plant response rating: 3
[6]; [19]
  Plant response rating, Giant foxtail: 8
[6]; [20]
  Plant response rating, Giant foxtail: 9
[6]; [21]
  Giant foxtail plant response rating: 10
[6]; Preemergence, Rate 250 g/ha
  Giant foxtail plant response rating (0 to 10 scale): 10
[6]; [22]
  Giant foxtail plant response rating: 10
[6]; [23]
  Plant response rating, Giant foxtail: 7
[7]; [17]
  Wild oats plant response rating: 0
[7]; [18]
  Wild oats plant response rating: 0
[7]; [19]
  Plant response rating, Wild oats: 0
[7]; [20]
  Plant response rating, Wild oats: 7
[7]; [21]
  Wild oats plant response rating: 9
[7]; Preemergence, Rate 250 g/ha
  Wild oats plant response rating (0 to 10 scale): 9
[7]; [23]
  Plant response rating, Wild oats: 0
[8]; [19]
  Plant response rating, Bedstraw: 9
[8]; [20]
  Plant response rating, Bedstraw: 0
[8]; [21]
  Bedstraw plant response rating: 0
[8]; Preemergence, Rate 250 g/ha
  Bedstraw plant response rating (0 to 10 scale): 7
[9]; [17]
  Corn plant response rating: 0
[9]; [18]
  Corn plant response rating: 2
[9]; [19]
  Plant response rating, Corn: 2
[9]; [20]
  Plant response rating, Corn: 0
[9]; [21]
  Corn plant response rating: 0
[9]; Preemergence, Rate 250 g/ha
  Corn plant response rating (0 to 10 scale): 0
[9]; [22]
  Corn plant response rating: 2
[9]; [23]
  Plant response rating, Corn: 2
[10]; [17]
  Velvetleaf plant response rating: 4
[10]; [18]
  Velvetleaf plant response rating: 4
[10]; [19]
  Plant response rating, Velvetleaf: 8
[10]; [20]
  Plant response rating, Velvetleaf: 0
[10]; [21]
  Velvetleaf plant response rating: 2
[10]; Preemergence, Rate 250 g/ha
  Velvetleaf plant response rating (0 to 10 scale): 2
[10]; [22]
  Velvetleaf plant response rating: 3
[10]; [23]
  Plant response rating, Velvetleaf: 7
[11]; [17]
  B. signalgrass plant response rating: 0
[11]; [18]
  B. signalgrass plant response rating: 2
[11]; [19]
  Plant response rating, B. signalgrass: 6
[11]; [20]
  Plant response rating, B. signalgrass: 8
[11]; [21]
  B. signalgrass plant response rating: 9
[11]; Preemergence, Rate 250 g/ha
  B. signalgrass plant response rating (0 to 10 scale, 0 is no effect, 10 is complete control): 9
[11]; [23]
  Plant response rating, B. signalgrass: 4
[12]; [17]
  Wheat plant response rating: 0
[12]; [18]
  Wheat plant response rating: 0
[12]; [19]
  Plant response rating, Wheat: 0
[12]; [20]
  Plant response rating, Wheat: 0
[12]; [21]
  Wheat plant response rating: 0
[12]; Preemergence, Rate 250 g/ha
  Wheat plant response rating (0 to 10 scale): 8
[12]; [23]
  Plant response rating, Wheat: 0
[13]; [17]
  Morningglory plant response rating: 6
[13]; [18]
  Morningglory plant response rating: 6
[13]; [19]
  Plant response rating, Morningglory: 7
[13]; [20]
  Plant response rating, Morningglory: 0
[13]; [21]
  Morningglory plant response rating: 0
[13]; Preemergence, Rate 250 g/ha
  Morningglory plant response rating (0 to 10 scale): 0
[13]; [22]
  Morningglory plant response rating: 2
[13]; [23]
  Plant response rating, Morningglory: 6
[14]; [17]
  Rape plant response rating: 0
[14]; [18]
  Rape plant response rating: 4
[14]; [19]
  Plant response rating, Rape: 4
[14]; [20]
  Plant response rating, Rape: 4
[14]; [21]
  Rape plant response rating: 4
[14]; Preemergence, Rate 250 g/ha
  Rape plant response rating (0 to 10 scale): 9
[15]; [17]
  Cocklebur plant response rating: 0
[15]; [18]
  Cocklebur plant response rating: 0
[15]; [19]
  Plant response rating, Cocklebur: 2
[15]; [20]
  Plant response rating, Cocklebur: 0
[15]; [21]
  Cocklebur plant response rating: 0
[15]; Preemergence, Rate 250 g/ha
  Cocklebur plant response rating (0 to 10 scale): 0
[15]; [22]
  Cocklebur plant response rating: 0
[15]; [23]
  Plant response rating, Cocklebur: 0
[16]; [17]
  Crabgrass plant response rating: 6
[16]; [18]
  Crabgrass plant response rating: 9
[16]; [19]
  Plant response rating, Crabgrass: 10
[16]; [20]
  Plant response rating, Crabgrass: 9
[16]; [21]
  Crabgrass plant response rating: 10
[16]; Preemergence, Rate 250 g/ha
  Crabgrass plant response rating (0 to 10 scale): 10
[16]; [22]
  Crabgrass plant response rating: 10
[16]; [23]
  Plant response rating, Crabgrass: 9
